Laboratory results reported in ChEMBL document CHEMBL4184254, “Novel SIRT1 activator MHY2233 improves glucose tolerance and reduces hepatic lipid accumulation in db/db mice” (Bioorg Med Chem Lett, 2018).
Calls of active or inactive are those of the source. The calls are words filed in the database; no cut-off is given here.

How the values were obtained:
[1] = system: Mus musculus; assay: Activation of SIRT1 in C57BLKS/J-db/db mouse assessed as reduction in p53 acetylation at 5 mg/kg/day dosed via oral gavage for 4 weeks by Western blot method; type: functional, organism-based
[2] = system: Mus musculus; assay: Reduction in hepatic SREBP-1a mRNA expression in C57BLKS/J-db/db mouse at 5 mg/kg/day dosed via oral gavage for 4 weeks by qRT-PCR method; type: functional, organism-based
[3] = system: Mus musculus; assay: Effect on body weight in C57BLKS/J-db/db mouse at 5 mg/kg/day dosed via oral gavage for 30 days; type: ADME, organism-based; conditions: in vivo, 720 h
[4] = system: Mus musculus; assay: Reduction in hepatic SREBP-1c mRNA expression in C57BLKS/J-db/db mouse at 5 mg/kg/day dosed via oral gavage for 4 weeks by qRT-PCR method; type: functional, organism-based
[5] = system: Mus musculus; assay: Reduction in hepatic FASN mRNA expression in C57BLKS/J-db/db mouse at 5 mg/kg/day dosed via oral gavage for 4 weeks by qRT-PCR method; type: functional, organism-based
[6] = system: Mus musculus; assay: Improvement in insulin resistance in C57BLKS/J-db/db mouse assessed as change in glucose level at 5 mg/kg/day dosed via oral gavage for 3 weeks by oral glucose tolerance test; type: functional, organism-based
[7] = system: Mus musculus; assay: Improvement in insulin resistance in C57BLKS/J-db/db mouse assessed as restoration of liver Akt Ser473 phosphorylation at 5 mg/kg/day dosed via oral gavage for 3 weeks during oral glucose tolerance test by Western blot; type: functional, organism-based
[8] = system: Mus musculus; assay: Reduction in serum total cholesterol level in C57BLKS/J-db/db mouse at 5 mg/kg/day dosed via oral gavage for 30 days by colorimetric assay; type: functional, organism-based
[9] = system: Mus musculus; assay: Reduction in hepatic ACC mRNA expression in C57BLKS/J-db/db mouse at 5 mg/kg/day dosed via oral gavage for 4 weeks by qRT-PCR method; type: functional, organism-based
[10] = system: Mus musculus; assay: Effect on food intake in C57BLKS/J-db/db mouse at 5 mg/kg/day dosed via oral gavage for 30 days; type: ADME, organism-based; conditions: in vivo, 720 h
[11] = system: Mus musculus; assay: Reduction in serum triglyceride level in C57BLKS/J-db/db mouse at 5 mg/kg/day dosed via oral gavage for 30 days by colorimetric assay; type: functional, organism-based
[12] = system: Mus musculus; assay: Improvement in insulin resistance in C57BLKS/J-db/db mouse assessed as restoration of liver IRS1 Tyr465 phosphorylation at 5 mg/kg/day dosed via oral gavage for 3 weeks during oral glucose tolerance test by Western blot; type: functional, organism-based
[13] = system: Mus musculus; assay: Reduction in serum NEFA level in C57BLKS/J-db/db mouse at 5 mg/kg/day dosed via oral gavage for 30 days by colorimetric assay; type: functional, organism-based
[14] = system: Mus musculus; assay: Effect on beta-oxidation related gene expression in C57BLKS/J-db/db mouse assessed as ACOX1 mRNA expression at 5 mg/kg/day dosed via oral gavage for 4 weeks by qRT-PCR method; type: functional, organism-based
[15] = system: Mus musculus; assay: Suppression of hepatic steatosis in C57BLKS/J-db/db mouse assessed as reduction in liver lipid droplets at 5 mg/kg/day dosed via oral gavage for 4 weeks by hematoxylin-eosin staining based assay; type: functional, organism-based
[16] = system: Mus musculus; assay: Reduction in hepatic triglyceride level in C57BLKS/J-db/db mouse at 5 mg/kg/day dosed via oral gavage for 4 weeks by colorimetric assay; type: functional, organism-based
[17] = target: T1, NAD-dependent protein deacetylase sirtuin-1 (Homo sapiens) (UniProt Q96EB6); assay: Activation of SIRT1 (unknown origin) assessed as increase in NAD-dependent deacetylase activity using fluoro-substrate peptide by fluorometric assay relative to resveratrol
T1 sequence (whole entry): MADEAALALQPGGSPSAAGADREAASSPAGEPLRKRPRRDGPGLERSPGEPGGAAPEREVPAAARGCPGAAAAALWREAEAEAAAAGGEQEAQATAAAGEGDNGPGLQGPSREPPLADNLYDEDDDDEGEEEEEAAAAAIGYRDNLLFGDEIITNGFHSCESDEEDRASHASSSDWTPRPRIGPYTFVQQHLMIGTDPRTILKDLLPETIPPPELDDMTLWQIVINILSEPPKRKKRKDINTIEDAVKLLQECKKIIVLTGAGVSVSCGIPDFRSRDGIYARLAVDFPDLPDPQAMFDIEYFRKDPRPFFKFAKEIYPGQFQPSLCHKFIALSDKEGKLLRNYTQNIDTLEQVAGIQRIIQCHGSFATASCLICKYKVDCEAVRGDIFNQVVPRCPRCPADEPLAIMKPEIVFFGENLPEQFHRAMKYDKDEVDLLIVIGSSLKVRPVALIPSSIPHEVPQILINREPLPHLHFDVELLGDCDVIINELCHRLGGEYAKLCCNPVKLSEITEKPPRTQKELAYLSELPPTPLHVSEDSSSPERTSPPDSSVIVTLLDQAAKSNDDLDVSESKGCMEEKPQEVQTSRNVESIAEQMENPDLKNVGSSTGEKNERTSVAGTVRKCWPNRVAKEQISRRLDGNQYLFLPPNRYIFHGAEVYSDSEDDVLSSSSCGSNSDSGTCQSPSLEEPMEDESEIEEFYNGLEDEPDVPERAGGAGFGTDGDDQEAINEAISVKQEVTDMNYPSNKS

[18] = system: Mus musculus; assay: Improvement in insulin resistance in C57BLKS/J-db/db mouse assessed as reduction in serum insulin level at 5 mg/kg/day dosed via oral gavage for 3 weeks by oral glucose tolerance test; type: functional, organism-based
[19] = system: Mus musculus; assay: Effect on beta-oxidation related gene expression in C57BLKS/J-db/db mouse assessed as CPT1 mRNA expression at 5 mg/kg/day dosed via oral gavage for 4 weeks by qRT-PCR method; type: functional, organism-based
[20] = system: Mus musculus; assay: Improvement in insulin resistance in C57BLKS/J-db/db mouse assessed as reduction in fasting serum glucose level at 5 mg/kg/day dosed via oral gavage for 3 weeks by oral glucose tolerance test; type: functional, organism-based

fold change (FC) [17]: 1.5
Structure (SMILES): O=C(Nc1ccccc1-c1nc2cc(CN3CCN(C4CCCCC4)CC3)ccc2o1)c1ccc2ccccc2c1
Activity [1]: Active
Activity [2]: Active
Activity [3]: Non-Toxic
Activity [4]: Active
Activity [5]: Active
Activity [6]: Active
Activity [7]: Active
Activity [8]: Active
Activity [9]: Active
Activity [10]: Non-Toxic
Activity [11]: Active
Activity [12]: Active
Activity [13]: Active
Activity [14]: inactive
Activity [15]: Active
Activity [16]: Active
Activity [18]: Active
Activity [19]: inactive
Activity [20]: Active
